Test results reported in US20040038861A1, “Methods and compositions for normalizing lipid levels in mammalian tissues” (priority 2001, published 2004).

Tested on: soleus muscle
Assay: Individual free fatty acids by gas chromatography in isolated soleus muscle from normally fed rats
Type: cell-based, rat
Conditions: for Total free fatty acids / free fatty acid C14:0 as percentage of total resting fatty acid / free fatty acid C15:0 as percentage of total resting fatty acid / free fatty acid C16:0 as percentage of total resting fatty acid / free fatty acid C16:1 (n-7) as percentage of total resting fatty acid / free fatty acid C16:1 (n-9) as percentage of total resting fatty acid / free fatty acid C17:0 as percentage of total resting fatty acid / free fatty acid C18:0 as percentage of total resting fatty acid / free fatty acid C18:1 (n-7) as percentage of total resting fatty acid / free fatty acid C18:1 (n-9) as percentage of total resting fatty acid / free fatty acid C18:2 as percentage of total resting fatty acid / free fatty acid C18:3 as percentage of total resting fatty acid / free fatty acid C20:0 as percentage of total resting fatty acid / free fatty acid C20:4 as percentage of total resting fatty acid / free fatty acid C20:5 as percentage of total resting fatty acid / free fatty acid C22:4 as percentage of total resting fatty acid / free fatty acid C22:6 as percentage of total resting fatty acid: 1 hour; for Total free fatty acids / free fatty acid adrenic C22:4 / free fatty acid arachidic C20:0 / free fatty acid arachidonic C20:4 / free fatty acid cervonic C22:6 / free fatty acid linoleic C18:2 / free fatty acid linolenic C18:3 / free fatty acid margaric C17:0 / free fatty acid myristic C14:0 / free fatty acid oleic C18:1 / free fatty acid palmitic C16:0 / free fatty acid palmitoleic (n-7) C16:1 / free fatty acid palmitoleic (n-9) C16:1 / free fatty acid pentadecanoic C15:0 / free fatty acid stearic C18:0 / free fatty acid timnodonic C20:5 / free fatty acid vaccenic C18:1: GC; for Total free fatty acids: hormone concentrations 100 nM for all; for free fatty acid C14:0 as percentage of total resting fatty acid / free fatty acid C15:0 as percentage of total resting fatty acid / free fatty acid C16:0 as percentage of total resting fatty acid / free fatty acid C16:1 (n-7) as percentage of total resting fatty acid / free fatty acid C16:1 (n-9) as percentage of total resting fatty acid / free fatty acid C17:0 as percentage of total resting fatty acid / free fatty acid C18:0 as percentage of total resting fatty acid / free fatty acid C18:1 (n-7) as percentage of total resting fatty acid / free fatty acid C18:1 (n-9) as percentage of total resting fatty acid / free fatty acid C18:2 as percentage of total resting fatty acid / free fatty acid C18:3 as percentage of total resting fatty acid / free fatty acid C20:0 as percentage of total resting fatty acid / free fatty acid C20:4 as percentage of total resting fatty acid / free fatty acid C20:5 as percentage of total resting fatty acid / free fatty acid C22:4 as percentage of total resting fatty acid / free fatty acid C22:6 as percentage of total resting fatty acid / free fatty acid adrenic C22:4 / free fatty acid arachidic C20:0 / free fatty acid arachidonic C20:4 / free fatty acid cervonic C22:6 / free fatty acid linoleic C18:2 / free fatty acid linolenic C18:3 / free fatty acid margaric C17:0 / free fatty acid myristic C14:0 / free fatty acid oleic C18:1 / free fatty acid palmitic C16:0 / free fatty acid palmitoleic (n-7) C16:1 / free fatty acid palmitoleic (n-9) C16:1 / free fatty acid pentadecanoic C15:0 / free fatty acid stearic C18:0 / free fatty acid timnodonic C20:5 / free fatty acid vaccenic C18:1: normally fed rats; for free fatty acid adrenic C22:4 / free fatty acid arachidic C20:0 / free fatty acid arachidonic C20:4 / free fatty acid cervonic C22:6 / free fatty acid linoleic C18:2 / free fatty acid linolenic C18:3 / free fatty acid margaric C17:0 / free fatty acid myristic C14:0 / free fatty acid oleic C18:1 / free fatty acid palmitic C16:0 / free fatty acid palmitoleic (n-7) C16:1 / free fatty acid palmitoleic (n-9) C16:1 / free fatty acid pentadecanoic C15:0 / free fatty acid stearic C18:0 / free fatty acid timnodonic C20:5 / free fatty acid vaccenic C18:1: hormone 1 hour
Procedure: Animal models. Normallyfed rats. All protocols were approved by the University of Auckland Animal Ethics Committee. Male Wistar rats, (age=50 d) weighing 200-250 g, were housed in a constant 12 h/12 h-light/dark cycle and received standard rat-chow (Diet 86, NRM, Auckland) and water ad libitum. The standard diet contained 5% fat (w/w), which comprised mainly beef tallow. The triglyceride, total and free fatty acid contents of representative samples of this diet were analyzed, and are shown in Table 3. Rats were anaesthetized by intraperitoneal injection of sodium pentobarbital (45 mg/kg body weight) then sacrificed by cervical dislocation.
Soleus muscle tissue isolation and incuhation.Immersion and incubation media was Krebs-Henseleit buffer (KHB) containing 118.5 mM NaCl, 4.75 mM KCl, 1.18 mM MgSO4.7H2O and KH2PO4, 24.8 mM NaHCO3, 2.54 mM CaCl2 and 10 mM d-glucose. The medium was gassed continuously with 95% O2/5% CO2. […] Soleus muscles of both legs were excised keeping the tissue immersed in KHB; muscles were separated into two equal parts and transferred to the incubation flasks. At the completion of incubation the muscles were snap frozen in liquid nitrogen, and then trimmed of connective tissue and all visible fat. The muscle strips were stored at −80° C. until analysis.
Lipid extraction and chromatographic separation of fatty acids. Total lipids were extracted from muscle strips by a modified version of the method of Bligh and Dyer (Gorski et al., 1988, Mol & Cell Biochem 178:113-118; 1. Bligh et al., 1959, Can J Biochem Physiol 37: 911-917). Muscles were homogenised (Soniprep 150) in 0.4 ml of deionised water. Solvent volumes used herein were varied according to the water content of the muscle (ie muscle weight) as described (Bligh & Dyer, supra). 2 vols of methanol containing 0.005% butylated hydroxy toluene (BHT) and 1 vol chloroform were added to the muscle suspension. Homogenates were vortexed at maximum speed for 2 minutes and centrifuged at 2,500 g for 4 minutes. Supernatants were recovered and pellets re-extracted with 2 vol methanol, 1 vol chloroform and 0.8 vol 0.2 N HCl. Residues were vortexed for 2 min then centrifuged at 3,500 g for 3 min. After centrifugation the combined supernatants were diluted with 2v each of milli Q water and chloroform and the phases separated by centrifugation at 3,500 g for 4 minutes. The lower chloroform phase was recovered, neutralised by dropwise addition of 0.2 N methanolic NH4OH and evaporated down in a stream of N2. The samples were stored at −80° C. until required.
Aminopropyl phase (250 mg) was packed into 16 ml teflon columns with teflon frits placed at the top and bottom of the bonded phase. Columns were placed in a Vac Elut apparatus and washed twice with 2 ml portions of hexane (Prasad et al., 1988, J Chromato 428: 221-228; Kaluzny et al., 1985, J Lipid Res 26: 135-140). The dry lipid samples were taken up in two 0.150 ml portions of chloroform and applied to the column under atmospheric pressure. After adsorption the neutral lipids were eluted with 4 ml of chloroform-2-propanol (2:1, v/v) and the free fatty acids eluted with 4 ml of 2% acetic acid in diethyl ether. The solvent containing the free fatty acids was dried under a stream of N2.
Gas-liquid chromatographic analysis. Dry free fatty acid residues were processed for derivatisation of methyl esters by the boron trifluoride-methanol method (Prasad, supra). 1 ml of boron trifluoride in methanol (BF3) was added to each sample, the sample vials were heated at 70° C. for 5 minutes, shaken vigorously, and baked for a further 10 minutes. Once the samples reached room temperature 0.5 ml milli Q water was added, the sample vials shaken, 0.1 ml heptane was added and the sample shaken again. 0.05 ml of the top heptane layer was removed for GLC analysis. […]

Compound	Total free fatty acids	free fatty acid C14:0 as percentage of total resting fatty acid	free fatty acid C15:0 as percentage of total resting fatty acid	free fatty acid C16:0 as percentage of total resting fatty acid	free fatty acid C16:1 (n-7) as percentage of total resting fatty acid	free fatty acid C16:1 (n-9) as percentage of total resting fatty acid	free fatty acid C17:0 as percentage of total resting fatty acid	free fatty acid C18:0 as percentage of total resting fatty acid	free fatty acid C18:1 (n-7) as percentage of total resting fatty acid	free fatty acid C18:1 (n-9) as percentage of total resting fatty acid	free fatty acid C18:2 as percentage of total resting fatty acid	free fatty acid C18:3 as percentage of total resting fatty acid	free fatty acid C20:0 as percentage of total resting fatty acid	free fatty acid C20:4 as percentage of total resting fatty acid	free fatty acid C20:5 as percentage of total resting fatty acid	free fatty acid C22:4 as percentage of total resting fatty acid	free fatty acid C22:6 as percentage of total resting fatty acid	free fatty acid adrenic C22:4	free fatty acid arachidic C20:0	free fatty acid arachidonic C20:4	other results
NC[C@H](O)c1ccc(O)c(O)c1 [Norepinephrine, norepinephrine]	0.527 ± 0.03 nmol/g wwt	3.1%	10.9%	2.2%	14.3%	6.0%	7.2%	2.4%	1.2%	1.4%	0.8%	2.5%	2.0%	0.9%	0.4%	7.5%	2.5%	0.007 ± 0.001 nmol/g wwt	0.003 ± 0.001 nmol/g wwt	0.015 ± 0.0007 nmol/g wwt	free fatty acid cervonic C22:6: 0.022 ± 0.0015 nmol/g wwt; free fatty acid linoleic C18:2: 0.043 ± 0.003 nmol/g wwt; free fatty acid linolenic C18:3: 0.007 ± 0.0025 nmol/g wwt; free fatty acid margaric C17:0: 0.01 ± 0.0007 nmol/g wwt; free fatty acid myristic C14:0: 0.023 ± 0.001 nmol/g wwt; free fatty acid oleic C18:1: 0.07 ± 0.0056 nmol/g wwt; free fatty acid palmitic C16:0: 0.175 ± 0.011 nmol/g wwt; free fatty acid palmitoleic (n-7) C16:1: 0.015 ± 0.002 nmol/g wwt; free fatty acid palmitoleic (n-9) C16:1: 0.007 ± 0.0007 nmol/g wwt; free fatty acid pentadecanoic C15:0: 0.01 ± 0.0012 nmol/g wwt; free fatty acid stearic C18:0: 0.1 ± 0.006 nmol/g wwt; free fatty acid timnodonic C20:5: 0.002 ± 0.0005 nmol/g wwt; free fatty acid vaccenic C18:1: 0.015 ± 0.0008 nmol/g wwt; free fatty acid arachidonic C20:4 (listed as norepinephrine): 0.015±0.0007 nmol/g wwt; free fatty acid cervonic C22:6 (listed as norepinephrine): 0.022±0.0015 nmol/g wwt; free fatty acid palmitoleic (n-9) C16:1 (listed as norepinephrine): 0.007±0.0007 nmol/g wwt
Rat amylin	0.636 ± 0.05 nmol/g wwt	3.4%	15.4%	2.6%	15.8%	7.2%	10.7%	2.9%	1.3%	1.6%	1.1%	3.7%	4.5%	1.0%	1.4%	9.1%	3.3%	0.008 ± 0.003 nmol/g wwt	0.008 ± 0.002 nmol/g wwt	0.016±0.002 nmol/g wwt	free fatty acid cervonic C22:6: 0.03±0.004 nmol/g wwt; free fatty acid linoleic C18:2: 0.058 ± 0.006 nmol/g wwt; free fatty acid linolenic C18:3: 0.01 ± 0.002 nmol/g wwt; free fatty acid margaric C17:0: 0.013 ± 0.0022 nmol/g wwt; free fatty acid myristic C14:0: 0.026 ± 0.0028 nmol/g wwt; free fatty acid oleic C18:1: 0.076 ± 0.0082 nmol/g wwt; free fatty acid palmitic C16:0: 0.21 ± 0.0188 nmol/g wwt; free fatty acid palmitoleic (n-7) C16:1: 0.015 ± 0.0025 nmol/g wwt; free fatty acid palmitoleic (n-9) C16:1: 0.008±0.0013 nmol/g wwt; free fatty acid pentadecanoic C15:0: 0.013 ± 0.002 nmol/g wwt; free fatty acid stearic C18:0: 0.125 ± 0.0058 nmol/g wwt; free fatty acid timnodonic C20:5: 0.005 ± 0.0007 nmol/g wwt; free fatty acid vaccenic C18:1: 0.015 ± 0.0015 nmol/g wwt; free fatty acid arachidonic C20:4 (listed as Amylin): 0.016 ± 0.002 nmol/g wwt; free fatty acid cervonic C22:6 (listed as Amylin): 0.03 ± 0.004 nmol/g wwt; free fatty acid palmitoleic (n-9) C16:1 (listed as Amylin): 0.008 ± 0.0013 nmol/g wwt
rat CGRP-1	0.691 ± 0.04 nmol/g wwt	3.6%	12.9%	2.9%	21.6%	7.5%	10.7%	3.6%	1.4%	1.8%	1.0%	2.1%	3.6%	1.1%	1.0%	8.1%	2.7%	0.007 ± 0.002 nmol/g wwt	0.007 ± 0.0008 nmol/g wwt	0.018±0.002 nmol/g wwt	free fatty acid cervonic C22:6: 0.022±0.002 nmol/g wwt; free fatty acid linoleic C18:2: 0.057 ± 0.006 nmol/g wwt; free fatty acid linolenic C18:3: 0.005 ± 0.0013 nmol/g wwt; free fatty acid margaric C17:0: 0.015 ± 0.0015 nmol/g wwt; free fatty acid myristic C14:0: 0.028 ± 0.001 nmol/g wwt; free fatty acid oleic C18:1: 0.09 ± 0.0075 nmol/g wwt; free fatty acid palmitic C16:0: 0.23 ± 0.01 nmol/g wwt; free fatty acid palmitoleic (n-7) C16:1: 0.022 ± 0.002 nmol/g wwt; free fatty acid palmitoleic (n-9) C16:1: 0.008±0.0006 nmol/g wwt; free fatty acid pentadecanoic C15:0: 0.01 ± 001 nmol/g wwt; free fatty acid stearic C18:0: 0.15 ± 0.01 nmol/g wwt; free fatty acid timnodonic C20:5: 0.003 ± 0.0005 nmol/g wwt; free fatty acid vaccenic C18:1: 0.017 ± 0.0015 nmol/g wwt
